ChEMBL document CHEMBL5034028, “Design, synthesis and biological evaluation of tyrosinase-targeting PROTACs” (Eur J Med Chem, 2021)
Values after ≈ are worked out from the molar mass of the structure shown. Active and inactive are the calls of the source. The rule behind the calls is not given here.

Columns and labels:
[1] = target: T1, Protein cereblon/Tyrosinase (Homo sapiens) (UniProt P14679+Q96SW2); assay: Protac activity at CRBN E3 ubiquitin ligase/tyrosinase in human A-375 cells assessed as induction of tyrosinase degradation at 50 uM measured after 24 hrs by immunoblotting analysis; assay type: cell-based
[2] = target: D(1A) dopamine receptor (Homo sapiens) (UniProt P21728); assay: Induction of degradation in dopamine receptor D1 in human A-375 cells at 100 uM measured after 24 hrs by immunoblotting analysis; assay type: cell-based
Danio rerio [3] = species on record: Danio rerio; assay: Inhibition of melanin production in zebra fish assessed reduction in melanin level in eyes at 25 to 100 uM measured 48 hrs post fertilization relative to 100 uM L-Dopa; assay type: functional; details: dose 25-100 µM
HEK293 = assay: Cytotoxicity against HEK293 cells assessed as reduction in cell viability at up to 400 uM measured after 72 hrs by CCK8 assay; assay type: cell-based; details: human, hek293, 72 h
A-375 [4] = assay: Cytotoxicity against human A-375 cells assessed as reduction in cell viability at up to 400 uM measured after 72 hrs by CCK8 assay; assay type: cell-based; details: a-375, 72 h
[5] = target: T1, Protein cereblon/Tyrosinase (Homo sapiens); assay: Protac activity at CRBN E3 ubiquitin ligase/tyrosinase in human A375 cells assessed as induction of tyrosinase degradation at 50 uM measured after 24 hrs by immunoblotting analysis relative to control; assay type: cell-based; details: A-375
[6] = target: T1, Protein cereblon/Tyrosinase (Homo sapiens); assay: Protac activity at CRBN E3 ubiquitin ligase/tyrosinase in human A-375 cells assessed as induction of tyrosinase degradation by measuring maximum degradation at 100 uM measured after 24 hrs by immunoblotting analysis relative to control; assay type: cell-based
[7] = target: T1, Protein cereblon/Tyrosinase (Homo sapiens); assay: Protac activity at CRBN E3 ubiquitin ligase/tyrosinase in human A-375 cells assessed as induction of tyrosinase degradation measured after 24 hrs by immunoblotting analysis; assay type: cell-based
[8] = target: T1, Protein cereblon/Tyrosinase (Homo sapiens); assay: Protac activity at CRBN E3 ubiquitin ligase/tyrosinase in human A-375 cells assessed as induction of tyrosinase degradation at 100 uM measured up to 48 hrs by immunoblotting analysis; assay type: cell-based; details: time hrs <=48, TDE = time-dependent effect
Danio rerio [9] = species on record: Danio rerio; assay: Inhibition of melanin production in zebra fish assessed reduction in melanin level in abdomen at 25 to 100 uM measured 48 hrs post fertilization; assay type: functional, organism-based; details: dose 25-100 µM
Danio rerio [10] = species on record: Danio rerio; assay: Inhibition of melanin production in zebra fish assessed reduction in melanin level in eyes at 25 to 100 uM measured 48 hrs post fertilization relative to 100 uM kojic acid; assay type: functional; details: dose 25-100 µM
[11] = Toxicity in zebrafish embryo assessed as effect on morphology at 25 to 100 uM measured 48 hrs post fertilization; assay type: tissue-based, Danio rerio; details: in vivo, dose 25-100 µM
Danio rerio [12] = species on record: Danio rerio; assay: Inhibition of melanin production in zebra fish assessed reduction in melanin level in eyes at 25 to 100 uM measured 48 hrs post fertilization; assay type: functional, organism-based; details: dose 25-100 µM
Danio rerio [13] = species on record: Danio rerio; assay: Inhibition of melanin production in zebra fish assessed depigmentation effect at 25 to 100 uM measured 96 hrs post fertilization relative to control; assay type: functional; design: scale not given: the % may be the effect or the level left; details: dose 25-100 µM
Tyrosinase = target: T2, Tyrosinase (Homo sapiens, UniProt P14679); assay: Inhibition of human tyrosinase
T2 sequence (P14679 whole entry): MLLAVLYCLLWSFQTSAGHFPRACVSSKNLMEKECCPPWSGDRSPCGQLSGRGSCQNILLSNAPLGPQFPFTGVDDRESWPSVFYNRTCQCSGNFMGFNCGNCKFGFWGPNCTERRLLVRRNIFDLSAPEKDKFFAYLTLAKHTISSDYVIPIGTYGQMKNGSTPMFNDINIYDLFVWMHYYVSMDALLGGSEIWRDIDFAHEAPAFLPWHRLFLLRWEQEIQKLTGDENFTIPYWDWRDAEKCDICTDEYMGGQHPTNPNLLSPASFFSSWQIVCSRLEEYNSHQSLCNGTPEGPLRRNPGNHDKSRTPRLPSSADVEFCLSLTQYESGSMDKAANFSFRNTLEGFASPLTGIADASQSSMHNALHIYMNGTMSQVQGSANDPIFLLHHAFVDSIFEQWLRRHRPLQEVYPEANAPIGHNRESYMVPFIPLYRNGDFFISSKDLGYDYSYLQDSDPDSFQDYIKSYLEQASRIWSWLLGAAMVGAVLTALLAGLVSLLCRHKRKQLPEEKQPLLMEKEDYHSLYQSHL

[14] = target: Adrenergic receptor alpha-1 (Homo sapiens) (UniProt P35348+P25100+P35368); assay: Induction of degradation in adrenergic receptor alpha1 in human A-375 cells at 100 uM measured after 24 hrs by immunoblotting analysis; assay type: cell-based
[15] = target: T3, Tyrosinase (Homo sapiens) (UniProt P14679); assay: Induction of human tyrosinase degradation in human A-375 cells assessed as downregulation of tyrosinase at 100 uM pretreated with proteasome inhibitor, MG132 for 30 mins followed by compound addition and measured after 24 hrs by immunoblotting analysis; assay type: cell-based
T3 sequence (whole entry): T2 sequence (P14679 whole entry)

[16] = target: T3, Tyrosinase (Homo sapiens); assay: Induction of human tyrosinase degradation in human A-375 cells assessed as downregulation of tyrosinase at 100 uM pretreated with ubiquitin activating enzyme inhibitor […] for 30 mins followed by compound addition and measured after 24 hrs by immunoblotting analysis; assay type: cell-based
[17] = Toxicity in zebrafish embryo assessed as effect on respiration at 25 to 100 uM measured 48 hrs post fertilization; design: species or system Danio rerio; details: in vivo, dose 25-100 µM
Danio rerio [18] = species on record: Danio rerio; assay: Inhibition of melanin production in zebra fish assessed reduction in melanin level in tail at 25 to 100 uM measured 48 hrs post fertilization; assay type: functional, organism-based; details: dose 25-100 µM
[19] = target: Beta-1 adrenergic receptor (Homo sapiens) (UniProt P08588); assay: Induction of degradation in adrenergic receptor beta1 in human A-375 cells at 100 uM measured after 24 hrs by immunoblotting analysis; assay type: cell-based
A-375 [20] = assay: Inhibition of melanin production in human A-375 cells assessed depigmentation ability at 0 to 100 uM measured after 24 hrs by UV-visible absorption spectrophotometric method relative to 100 uM kojic acid; assay type: functional; details: dose 0-100 µM
[21] = Aqueous solubility of compound; assay type: physicochemical; details: aqueous (not further specified)
[22] = n-Octanol/water partition coefficient, logD of the compound; assay type: physicochemical
Danio rerio [23] = species on record: Danio rerio; assay: Inhibition of melanin production in zebra fish assessed reduction in melanin level in back at 25 to 100 uM measured 48 hrs post fertilization; assay type: functional, organism-based; details: dose 25-100 µM
A-375 [24] = assay: Inhibition of melanin production in human A-375 cells assessed depigmentation ability at 0 to 100 uM measured after 24 hrs by UV-visible absorption spectrophotometric method relative to 100 uM L-Dopa; assay type: functional; details: dose 0-100 µM
[25] = Cytotoxicity against human A-375 cells assessed as reduction in cell viability measured after 72 hrs by CCK8 assay; assay type: cell-based
[26] = Cytotoxicity against HEK293 cells assessed as reduction in cell viability measured after 72 hrs by CCK8 assay; assay type: cell-based; details: human
A-375 [27] = assay: Inhibition of melanin production in human A-375 cells assessed reduction in melanin level measured after 24 hrs by UV-visible absorption spectrophotometric method; assay type: functional, cell-based
[28] = target: T1, Protein cereblon/Tyrosinase (Homo sapiens); assay: Protac activity at CRBN E3 ubiquitin ligase/tyrosinase in human A-375 cells assessed as induction of tyrosinase degradation at 100 uM measured after 24 hrs by immunoblotting analysis; assay type: cell-based
Mushroom tyrosinase = Mushroom tyrosinase (Agaricus bisporus, UniProt O42713+Q00024+C7FF04+C7FF05); assay: Binding affinity to mushroom tyrosinase assessed as dissociation constant
A-375 [29] = assay: Inhibition of melanin production in human A-375 cells assessed reduction in melanin level at 100 uM measured after 24 hrs by UV-visible absorption spectrophotometric method; assay type: functional, cell-based
Danio rerio [30] = species on record: Danio rerio; assay: Inhibition of melanin production in zebra fish assessed depigmentation effect at 100 uM measured 96 hrs post fertilization; assay type: functional, organism-based

T1 sequence (Q96SW2 whole entry, looked up, one chain of several): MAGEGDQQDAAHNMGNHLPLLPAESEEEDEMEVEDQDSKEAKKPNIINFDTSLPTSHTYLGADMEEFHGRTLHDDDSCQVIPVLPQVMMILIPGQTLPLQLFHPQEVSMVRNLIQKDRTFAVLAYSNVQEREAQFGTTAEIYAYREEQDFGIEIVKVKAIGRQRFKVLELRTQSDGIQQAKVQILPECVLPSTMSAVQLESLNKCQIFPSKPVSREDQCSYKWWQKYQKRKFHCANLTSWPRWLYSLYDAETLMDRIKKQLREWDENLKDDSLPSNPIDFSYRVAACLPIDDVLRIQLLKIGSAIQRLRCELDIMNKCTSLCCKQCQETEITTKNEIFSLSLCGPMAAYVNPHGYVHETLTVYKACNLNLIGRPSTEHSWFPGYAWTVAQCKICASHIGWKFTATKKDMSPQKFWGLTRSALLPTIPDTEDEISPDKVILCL
Chain of D(1A) dopamine receptor (Homo sapiens) (P21728 whole entry): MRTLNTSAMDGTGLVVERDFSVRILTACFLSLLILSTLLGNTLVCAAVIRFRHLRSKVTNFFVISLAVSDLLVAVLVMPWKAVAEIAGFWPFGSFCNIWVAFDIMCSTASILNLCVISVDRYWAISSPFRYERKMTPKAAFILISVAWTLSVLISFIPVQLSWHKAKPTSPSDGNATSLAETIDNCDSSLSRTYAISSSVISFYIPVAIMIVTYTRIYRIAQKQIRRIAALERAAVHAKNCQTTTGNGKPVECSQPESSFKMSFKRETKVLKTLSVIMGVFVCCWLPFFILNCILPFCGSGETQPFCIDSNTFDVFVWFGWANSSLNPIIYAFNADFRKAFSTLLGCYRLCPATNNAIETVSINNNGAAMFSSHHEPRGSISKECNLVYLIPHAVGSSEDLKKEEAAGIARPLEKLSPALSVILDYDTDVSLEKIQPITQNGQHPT
Chain of Beta-1 adrenergic receptor (Homo sapiens) (P08588 whole entry, looked up): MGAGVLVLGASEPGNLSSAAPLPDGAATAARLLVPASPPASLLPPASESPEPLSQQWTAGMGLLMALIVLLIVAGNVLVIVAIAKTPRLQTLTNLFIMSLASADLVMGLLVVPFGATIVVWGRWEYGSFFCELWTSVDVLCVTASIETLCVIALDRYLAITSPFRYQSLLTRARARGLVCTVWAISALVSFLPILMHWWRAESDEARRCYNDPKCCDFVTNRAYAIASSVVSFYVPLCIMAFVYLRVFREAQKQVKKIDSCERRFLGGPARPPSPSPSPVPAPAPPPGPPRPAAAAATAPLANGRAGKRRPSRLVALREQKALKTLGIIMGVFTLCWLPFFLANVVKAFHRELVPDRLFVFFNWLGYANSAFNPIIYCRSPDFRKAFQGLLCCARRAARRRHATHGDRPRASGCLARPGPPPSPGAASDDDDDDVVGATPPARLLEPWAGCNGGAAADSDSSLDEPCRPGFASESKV

## O=C1CCC(N2C(=O)c3cccc(NCCCCCCCC(=O)OCc4cc(=O)c(O)co4)c3C2=O)C(=O)N1 (configuration not stated)
[1]
  Activity: inactive

## N[C@@H](Cc1ccc(O)c(O)c1)C(=O)NCCCCCNc1cccc2c1C(=O)N(C1CCC(=O)NC1=O)C2=O (some centres not stated)
[2]
  Activity: inactive
Danio rerio [3]
  fold change (FC): 5.1
HEK293
  Activity: Non-Toxic
[1]
  Activity: Active
A-375 [4]
  Activity: Non-Toxic
[5]
  Activity: 46%
[6]
  %max: 61%
[7]
  Activity: Dose-Dependent Effect
[8]
  Activity: Tde
Danio rerio [9]
  inhibition: Active
Danio rerio [10]
  fold change (FC): 3.3
[11]
  Activity: Non-Toxic
Danio rerio [12]
  inhibition: Active
Danio rerio [13]
  Activity: 81%
Tyrosinase
  IC50: 113 µM
[14]
  Activity: inactive
[15]
  Activity: inactive
[16]
  Activity: inactive
[17]
  Activity: Non-Toxic
Danio rerio [18]
  inhibition: Active
[19]
  Activity: inactive
A-375 [20]
  fold change (FC): 1.4
[21]
  solubility: 11400 µg/mL (≈ 21200 µM)
[22]
  logP: -0.65
Danio rerio [23]
  inhibition: Active
A-375 [24]
  fold change (FC): 1.7
[25]
  CC50 at 72 h: > 700 µM
[26]
  CC50 at 72 h: > 700 µM
A-375 [27]
  inhibition: Dose-Dependent Effect

## N[C@@H](Cc1ccc(O)c(O)c1)C(=O)NCCOCCNc1cccc2c1C(=O)N(C1CCC(=O)NC1=O)C2=O (some centres not stated)
[5]
  Activity: 7%

## O=c1oc2c(O)c(O)cc3c(=O)oc4c(O)c(O)cc1c4c23 [ELLAGIC ACID]
[21]
  solubility: 9.7 µg/mL (≈ 32.1 µM)

## N[C@@H](Cc1ccc(O)c(O)c1)C(=O)NCCCCCCCCNc1cccc2c1C(=O)N(C1CCC(=O)NC1=O)C2=O (some centres not stated)
[1]
  Activity: Active
[5]
  Activity: 38%

## O=C1CCC(N2C(=O)c3ccccc3C2=O)C(=O)N1 (configuration not stated)
[1]
  Activity: inactive

## CN1C(=O)CCC(N2C(=O)c3cccc(NCCCCCNC(=O)[C@@H](N)Cc4ccc(O)c(O)c4)c3C2=O)C1=O (some centres not stated)
[28]
  Activity: inactive

## N[C@@H](Cc1ccc(O)c(O)c1)C(=O)NCCCCNc1cccc2c1C(=O)N(C1CCC(=O)NC1=O)C2=O (some centres not stated)
[5]
  Activity: 19%

## N[C@@H](Cc1ccc(O)c(O)c1)C(=O)NCCCCCCCCCCNc1cccc2c1C(=O)N(C1CCC(=O)NC1=O)C2=O (some centres not stated)
[5]
  Activity: 37%

## N[C@@H](Cc1ccc(O)cc1)C(=O)NCCCCCNc1cccc2c1C(=O)N(C1CCC(=O)NC1=O)C2=O (some centres not stated)
[28]
  Activity: inactive

## N[C@@H](Cc1ccc(O)c(O)c1)C(=O)NCCOCCOCCNc1cccc2c1C(=O)N(C1CCC(=O)NC1=O)C2=O (some centres not stated)
[5]
  Activity: 7%

## N[C@@H](Cc1cccc(O)c1)C(=O)NCCCCCNc1cccc2c1C(=O)N(C1CCC(=O)NC1=O)C2=O (some centres not stated)
[28]
  Activity: inactive

## N[C@@H](Cc1ccc(O)c(O)c1)C(=O)NCCCCCCNc1cccc2c1C(=O)N(C1CCC(=O)NC1=O)C2=O (some centres not stated)
[2]
  Activity: inactive
[5]
  Activity: > 25%
[14]
  Activity: inactive
[19]
  Activity: inactive

## O=C(CCc1ccc(O)c(O)c1)NCCCCCNc1cccc2c1C(=O)N(C1CCC(=O)NC1=O)C2=O (configuration not stated)
[28]
  Activity: inactive

## N[C@@H](Cc1ccc(O)c(O)c1)C(=O)O [LEVODOPA]
Mushroom tyrosinase
  Kd: 19 µM
[1]
  Activity: inactive
A-375 [29]
  inhibition: Active
Danio rerio [9]
  inhibition: inactive
Danio rerio [12]
  inhibition: inactive
Danio rerio [18]
  inhibition: inactive
Danio rerio [23]
  inhibition: inactive

## N[C@@H](Cc1ccccc1)C(=O)NCCCCCNc1cccc2c1C(=O)N(C1CCC(=O)NC1=O)C2=O (some centres not stated)
[28]
  Activity: inactive

## O=C1CCC(N2C(=O)c3cccc(NCCCCCC(=O)OCc4cc(=O)c(O)co4)c3C2=O)C(=O)N1 (configuration not stated)
[1]
  Activity: inactive

## N[C@@H](Cc1ccc(O)c(O)c1)C(=O)NCCNc1cccc2c1C(=O)N(C1CCC(=O)NC1=O)C2=O (some centres not stated)
[5]
  Activity: 14%

## O=C1CCC(N2C(=O)c3cccc(NCCCCCCCCCCC(=O)OCc4cc(=O)c(O)co4)c3C2=O)C(=O)N1 (configuration not stated)
[1]
  Activity: inactive

## N[C@@H](Cc1ccc(O)c(O)c1)C(=O)NCCCCCCCNc1cccc2c1C(=O)N(C1CCC(=O)NC1=O)C2=O (some centres not stated)
[5]
  Activity: 37%

## O=c1cc(CO)occ1O [KOJIC ACID]
A-375 [29]
  inhibition: Active
Danio rerio [9]
  inhibition: inactive
Danio rerio [12]
  inhibition: inactive
Danio rerio [30]
  Activity: Active
Danio rerio [18]
  inhibition: inactive
[21]
  solubility: 55 µg/mL (≈ 387 µM)
Danio rerio [23]
  inhibition: inactive

## N[C@@H](Cc1ccc(O)c(O)c1)C(=O)NCCCNc1cccc2c1C(=O)N(C1CCC(=O)NC1=O)C2=O (some centres not stated)
[5]
  Activity: 25%

## O=C1CCC(N2C(=O)c3cccc(NCCCCCCCCC(=O)OCc4cc(=O)c(O)co4)c3C2=O)C(=O)N1 (configuration not stated)
[1]
  Activity: inactive
